Assay results published in US7524867B2, “Tetrasubstituted imidazole derivatives as cannabinoid CB1 receptor modulators with a high CB1/CB2 receptor subtype selectivity” (Solvay Pharmaceuticals, B.V., priority 2004, dated 2009).
Like-named read-outs stand apart in the source and are kept apart here.

Columns and labels:
[1] = target: T1, human cannabinoid CB2 receptor (Homo sapiens, UniProt P34972); assay: In vitro affinity for cannabinoid-CB2 receptors ([3H]CP-55,940 radioligand binding, CHO cell membranes); conditions: membranes of CHO cells stably transfected with human CB2, mean of at least three independent experiments
T1 construct: expressed in transfected cells; host or cells: Chinese hamster ovary (CHO) cells, stably transfected; membrane preparation
T1 sequence (P34972 whole entry): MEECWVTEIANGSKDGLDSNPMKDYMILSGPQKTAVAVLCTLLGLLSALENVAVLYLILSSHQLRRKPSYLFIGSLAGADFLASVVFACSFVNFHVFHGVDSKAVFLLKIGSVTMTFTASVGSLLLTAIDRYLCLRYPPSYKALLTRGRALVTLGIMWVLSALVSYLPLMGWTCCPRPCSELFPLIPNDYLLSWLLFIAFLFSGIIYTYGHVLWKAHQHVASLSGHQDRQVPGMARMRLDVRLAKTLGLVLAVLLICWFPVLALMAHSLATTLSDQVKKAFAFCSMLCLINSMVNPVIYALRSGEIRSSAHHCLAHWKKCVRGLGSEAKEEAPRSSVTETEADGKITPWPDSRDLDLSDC
Experimental: In Vitro Affinity for Cannabinoid-CB2 Receptors
The affinity of the compounds of the invention for cannabinoid CB2 receptors can be determined using membrane preparations of Chinese hamster ovary (CHO) cells in which the human cannabinoid CB2 receptor is stably transfected in conjunction with [^3H]CP-55,940 as radioligand. After incubation of a freshly prepared cell membrane preparation with the [^3H]-ligand, with or without addition of compounds of the invention, separation of bound and free ligand is performed by filtration over glassfiber filters. Radioactivity on the filter is measured by liquid scintillation counting.

[2] = target: T2, human cannabinoid CB1 receptor (Homo sapiens, UniProt P21554); assay: In vitro affinity for cannabinoid-CB1 receptors ([3H]CP-55,940 radioligand binding, CHO cell membranes); conditions: for CB1/CB2 ratio: CB1/CB2 receptor subtype selectivity (affinity ratio; numerically CB2 nM value divided by CB1 nM value)
T2 construct: expressed in transfected cells; host or cells: Chinese hamster ovary (CHO) cells, stably transfected; membrane preparation
T2 sequence (P21554 whole entry): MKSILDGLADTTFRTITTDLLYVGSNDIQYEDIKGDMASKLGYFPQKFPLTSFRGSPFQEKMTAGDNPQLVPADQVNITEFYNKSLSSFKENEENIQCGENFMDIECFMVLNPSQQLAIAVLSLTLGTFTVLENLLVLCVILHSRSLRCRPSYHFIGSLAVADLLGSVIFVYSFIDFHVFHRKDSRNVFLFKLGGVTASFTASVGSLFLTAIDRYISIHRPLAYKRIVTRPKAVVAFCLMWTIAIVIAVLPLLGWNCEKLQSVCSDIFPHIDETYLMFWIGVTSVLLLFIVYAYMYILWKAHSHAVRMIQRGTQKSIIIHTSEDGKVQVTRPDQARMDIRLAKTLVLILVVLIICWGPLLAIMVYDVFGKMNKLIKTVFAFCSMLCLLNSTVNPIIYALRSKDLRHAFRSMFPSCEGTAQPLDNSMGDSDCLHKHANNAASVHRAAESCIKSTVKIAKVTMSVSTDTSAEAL
Experimental: In Vitro Affinity for Cannabinoid-CB1 Receptors
After incubation of a freshly prepared cell membrane preparation with the [^3H]-ligand, with or without addition of compounds of the invention, separation of bound and free ligand is performed by filtration over glassfiber filters. Radioactivity on the filter is measured by liquid scintillation counting.
The affinity of the compounds of the invention for CB1 receptors was determined as described above. […] Pharmacokinetic, pharmacodynamic, and other considerations may alter the dose actually administered to a higher or lower value. The dosage expediently administered is 0.001-1000 mg/kg, preferably 0.1-100 mg/kg of patient's bodyweight.

Structure (SMILES)	melting point [°C]	Ki [1] [nM]	Ki [2] [nM]	CB1/CB2 ratio [2]	Ki ([2]; receptor affinity, membranes of CHO cells stably transfected with human CB1, [3H]CP-55,940, mean of at least three independent experiments, read-out: CB1) [nM]
CSc1c(C(=O)NN2CCCCC2)nc(-c2ccccc2Cl)n1-c1ccc(Cl)cc1	192 to 193				
CS(=O)(=O)c1c(C(=O)NN2CCCCC2)nc(-c2ccc(Cl)cc2Cl)n1-c1ccc(Cl)cc1 [compound 1, 1-(4-Chlorophenyl)-2-(2,4-dichlorophenyl)-5-methylsulfonyl-N-(piperidin-1-yl)-1H-imidazole-4-carboxamide]		7650	12	638	
CSc1c(C(=O)NN2CCCCC2)nc(-c2ccc(Cl)cc2Cl)n1-c1ccc(Cl)cc1 [compound 6, 1-(4-Chlorophenyl)-2-(2,4-dichlorophenyl)-5-methylsulfanyl-N-(piperdin-1-yl)-1H-imidazole-4-carboxamide]		2060		171	
CSc1c(C(=O)NN2CCCC2)nc(-c2ccc(Cl)cc2Cl)n1-c1ccc(Cl)cc1 [compound 9, 1-(4-chlorophenyl)-2-(2,4-dichlorophenyl)-5-methylsulfanyl-N-(pyrrolidin-1-yl)-1H-imidazole-4-carboxamide]		> 1000	5	>200	
CSc1c(C(=O)NN2CCCCCC2)nc(-c2ccc(Cl)cc2Cl)n1-c1ccc(Cl)cc1 [compound 10, 1-(4-chlorophenyl)-2-(2,4-dichlorophenyl)-5-methylsulfanyl-N-(azepan-1-yl)-1H-imidazole-4-carboxamide]		> 1000		>142	7
